Data taken from patent publication US6613719B1, “3-(4,5-dihydroisoxazol-3-yl)-substituted benzoylpyrazoles” (BASF Aktiengesellschaft, priority 1999, dated 2003).

melting point: 76 to 78 °C
SMILES: Cc1c(C(=O)c2cnn(C)c2O)ccc(S(C)(=O)=O)c1C1=NOC(CCl)C1 (stereo not shown) [Compound 2.1, 4-[2-Methyl-3-(5-chloromethyl-4,5-dihydroisoxazol-3-yl)-4-methyl-sulfonylbenzoyl]-5-hydroxy-1-methyl-1H-pyrazole]
